Measurements taken from patent US7847070B2, “LUCA2 and antibodies that bind thereto” (Raven biotechnologies, inc., priority 2005, dated 2010).

Tested on: Hs700T human pancreatic adenocarcinoma cells
Experiment: Subcutaneous model of human pancreatic adenocarcinoma
Type: in vivo, NCR.nu/nu homozygous mice
Settings: 5FU 35 mg/kg intraperitoneally, once weekly for 4 treatments
Method: This study was designed to test the dose-responsive anti-tumor data for an anti-LUCA2 antibody in a subcutaneous model of pancreatic cancer. Fluorouracil (5FU), a cytotoxic chemotherapy agent, was used as a positive control and tested to see if there was a cumulative effect with mu-anti-LUCA2 and 5FU.
Cultured Hs700T human pancreatic adenocarcinoma cells were trypsinized, washed in media, spun down and resuspended in media at 100 million cells per milliliter of media (5 million cells per 0.05 mL volume), then mixed in an equal volume of Matrigel® for a final injection volume of 0.1 mL. 72 NCR.nu/nu homozygous mice were dosed intraperitoneally during the study. The groups were (1) saline control at 0.2 mL, twice weekly for 10 treatments (2) mu-anti-LUCA2 antibody at 50 mg/kg, twice weekly for 10 treatments, (3) Fluorouracil (5FU) at 35 mg/kg, once weekly for 4 treatments, and (4) mu-anti-LUCA2 antibody at 50 mg/kg and 5FU at 35 mg/kg, twice weekly for 10 treatments.
Tumor growth over time was evaluated to determine anti-tumor activity. Tumors were palpable prior to initiation of therapy. Animals responding to antibody treatment were maintained after treatment cessation to determine time to tumor regrowth.

O=c1[nH]cc(F)c(=O)[nH]1 [5FU, Fluorouracil]
tumor volume inhibition compared to saline control: approximately 21.5%
